Test results taken from patent publication US7902354B2, “Lapachone compounds and methods of use thereof” (ArQule, Inc., priority 2006, dated 2011).
pIC50: −log10 of the molar value.

Assays:
Assay type in all cases: cell-based
[1] = test system: A549 human lung carcinoma cells; test: MTS cell viability assay, A549 human lung carcinoma cells; details: A549, 4 h compound incubation, MTS, read-out: IC50 Values, Cancerous Cells, Lung A549
[2] = test system: DLD-1 human colon carcinoma cells; test: MTS cell viability assay, DLD-1 human colon carcinoma cells; details: DLD-1, 4 h compound incubation, MTS, read-out: IC50 Values, Cancerous Cells, Colon DLD-1
[3] = test system: DU-145 human prostate carcinoma cells; test: MTS cell viability assay, DU-145 human prostate carcinoma cells; details: DU-145, 4 h compound incubation, MTS, read-out: IC50 Values, Cancerous Cells, Prostate DU-145
[4] = test system: K-562 human leukemia cells; test: MTS cell viability assay, K-562 human leukemia cells; details: K562, K-562, 4 h compound incubation, MTS, read-out: IC50 Values, Cancerous Cells, Leukemia K-562
[5] = test system: PACA-2 human pancreatic carcinoma cells; test: MTS cell viability assay, PACA-2 human pancreatic carcinoma cells; details: PACA-2, 4 h compound incubation, MTS, read-out: IC50 Values, Cancerous Cells, Pancreas PACA-2
[6] = test system: NCM-460 normal colon epithelial cells; test: MTS cell viability assay, NCM-460 normal colon epithelial cells; details: for pIC50: Homo sapiens, NCM460, NCM-460, 4 h compound incubation, MTS, read-out: IC50 Values, Normal Cells, Colon NCM-460; for Fold Selectivity (NCM-460/DLD1): ratio of IC50 NCM-460 / DLD1

SMILES | pIC50 [1] | pIC50 [2] | pIC50 [3] | pIC50 [4] | pIC50 [5] | pIC50 [6] | Fold Selectivity (NCM-460/DLD1) [6]
O=C1C(=O)c2ccccc2C2=C1SCC1(CCN(CC3CCCCC3)CC1)O2 [Compound 136, 1′-(cyclohexylmethyl)spiro[naphtho[1,2-b][1,4]oxathiine-2,4′-piperidine]-5,6-dione] | 5.02 | 5.53 | 5.36 | 5.36 | 5.38 | 5.06 | 2.9
O=C1C(=O)c2ccccc2C2=C1SCC1(CCN(CC(O)COc3ccc(F)cc3)CC1)O2 (stereo not shown) [Compound 164, 1′-[3-(4-fluorophenoxy)-2-hydroxypropyl]spiro[naphtho[1,2-b][1,4]oxathiine-2,4′-piperidine]-5,6-dione] | 5.04 | 5.82 | 5.54 | 5.51 | 5.85 | 5.01 | 6.4
O=C1C(=O)c2ccccc2C2=C1SCC1(CCN(CCCOc3ccccc3)CC1)O2 [Compound 144, 1′-(3-phenoxypropyl)spiro[naphtho[1,2-b][1,4]oxathiine-2,4′-piperidine]-5,6-dione] | 5.09 | 5.66 | 5.31 | 5.36 | 5.55 | 5.00 | 4.6
O=C1C(=O)c2ccccc2C2=C1SCC1(CCN(CC(O)COc3ccc(Cl)cc3)CC1)O2 (stereo not shown) [Compound 176, 1′-[3-(4-chlorophenoxy)-2-hydroxypropyl]spiro[naphtho[1,2-b][1,4]oxathiine-2,4′-piperidine]-5,6-dione] | 5.29 | 5.62 | 5.61 | 5.32 | 5.52 | 4.96 | 4.6
CC(c1ccccc1)N1CCC2(CC1)CSC1=C(O2)c2ccccc2C(=O)C1=O (stereo not shown) [Compound 137, 1′-(1-phenylethyl)spiro[naphtho[12-b][1,4]oxathiine-2,4′-piperidine]-5,6-dione] | 5.08 | 5.39 | 5.36 | 5.37 | 5.39 | 5.00 | 2.5
N#Cc1ccc(CN2CCC3(CC2)CSC2=C(O3)c3ccccc3C(=O)C2=O)cc1 [Compound 123, 4-[(5,6-dioxo-5,6-dihydro-1′H-spiro[naphtho[1,2-b][1,4]oxathiine-2,4′-piperidine]-1′-yl)methyl]benzonitrile] | 4.43 | 5.36 | 5.36 | 5.39 | 5.38 | 5.00 | 2.3
CC(C)COC(=O)N1CCC2(CC1)CSC1=C(O2)c2ccccc2C(=O)C1=O [Compound 93, isobutyl 5,6-dioxo-5,6-dihydro-1′H-spiro[naphtho[1,2-b][1,4]oxathiine-2,4′-piperidine]-1′-carboxylate] | 5.31 | 5.77 | 5.37 | 5.61 | 5.45 | 4.97 | 6.4
O=C1C(=O)c2ccccc2C2=C1SCC1(CCN(CCOc3ccccc3)CC1)O2 [Compound 140, 1′-(2-phenoxyethyl)spiro[naphtho[1,2-b][1,4]oxathiine-2,4′-piperidine]-5,6-dione] | 4.67 | 5.47 | 5.38 | 5.37 | 5.41 | 4.91 | 3.6
O=C1C(=O)c2ccccc2C2=C1SCC1(CCN(CCCC(F)(F)F)CC1)O2 [Compound 141, 1′-(4,4,4-trifluorobutyl)spiro[naphtho[1,2-b][1,4]oxathiine-2,4′-piperidine]-5,6-dione] | 5.30 | 5.71 | 5.40 | 5.62 | 5.61 | 5.09 | 4.2
Cc1ccc(CN2CCC3(CC2)CSC2=C(O3)c3ccccc3C(=O)C2=O)cc1F [Compound 146, 1′-(3-fluoro-4-methylbenzyl)spiro[naphtho[1,2-b][1,4]oxathiine-2,4′-piperidine]-5,6-dione] | 4.42 | 5.34 | 5.24 | 4.92 | 5.39 | 4.58 | 5.8
O=C1C(=O)c2ccccc2C2=C1SCC1(CCN(C/C=C/c3ccccc3)CC1)O2 [Compound 139, 1′-[(2E)-3-phenylprop-2-en-1-yl]spiro[naphtho[1.2-b][1,4]oxathiine-2,4′-piperidine]-5,6-dione] | 4.56 | 5.36 | 5.35 | 5.32 | 5.38 | 4.71 | 4.5
O=C1C(=O)c2ccccc2C2=C1SCC1(CCN(S(=O)(=O)c3cccc(Cl)c3)CC1)O2 [Compound 82, 1′-[(3-chlorophenyl)sulfonyl]spiro[naphtho[1,2-b][1,4]oxathiine-2,4′-piperidine]-5,6-dione] | 4.82 | 5.05 | 5.10 | 5.00 | 5.34 | 4.68 | 2.4
O=C1C(=O)c2ccccc2C2=C1SCC1(CCN(C(=O)C3CCC3C(=O)O)CC1)O2 (stereo not shown) [Compound 235, 2-[(5,6-dioxo-5,6-dihydro-1′H-spiro[naphtho[1,2-b][1,4]oxathiine-2,4′-piperidin]-1′-yl)carbonyl]cyclobutanecarboxylic acid] | < 4.00 | 4.16 | 4.26 | 4.28 | 4.31 | 4.07 | 1.2
CC(C(=O)Nc1ccccc1)N1CCC2(CC1)CSC1=C(O2)c2ccccc2C(=O)C1=O (stereo not shown) [Compound 134, 2-(5,6-dioxo-5,6-dihydro-1′H-spiro[naphtho[1,2-b][1,4]oxathiine-2,4′-piperidin]-1′-yl)-N-phenylpropanamide] | 4.63 | 5.40 | 5.16 | 5.14 | 5.35 | 4.81 | 4.0

Further lines, with some results ahead:

pIC50 [1] | pIC50 [2] | pIC50 [3] | pIC50 [4] | pIC50 [5] | SMILES | pIC50 [6] | Fold Selectivity (NCM-460/DLD1) [6]
4.99 | 5.80 | 5.54 | 5.84 | 5.87 | Cc1ccc(NC(=O)N2CCC3(CC2)CSC2=C(O3)c3ccccc3C(=O)C2=O)cn1 [Compound 91, N-(6-methylpyridin-3-yl)-5,6-dioxo-5,6-dihydro-1′H-spiro[naphtho[1,2-b][1,4]oxathiine-2,4′-piperidine]-1′-carboxamide] | 5.05 | 5.6
5.27 | 5.81 | 5.45 | 5.84 | 5.85 | O=C1C(=O)c2ccccc2C2=C1SCC1(CCN(C(=O)C(Cl)c3ccccc3)CC1)O2 (stereo not shown) [Compound 50, 1′-[chloro(phenyl)acetyl]spiro[naphtho[1,2-b][1,4]oxathiine-2,4′-piperidine]-5,6-dione] | 5.15 | 4.6
5.13 | 5.80 | 5.34 | 5.42 | 5.56 | O=C1C(=O)c2ccccc2C2=C1SCC1(CCN(Cc3ccccc3)CC1)O2 [Compound 130, 1′-benzylspiro[naphtho[1,2-b][1,4]oxathiine-2,4′-piperidine]-5,6-dione] | 4.99 | 6.5
4.77 | 5.39 | 4.98 | 5.37 | 5.37 | O=C1C(=O)c2ccccc2C2=C1SCC1(CCN(C(=O)c3cccnc3)CC1)O2 [Compound 59, 1′-(pyridin-3-ylcarbonyl)spiro[naphtho[1,2-b][1,4]oxathiine-2,4′-piperidine]-5,6-dione] | 4.97 | 2.6
5.25 | 5.54 | 5.39 | 5.74 | 5.62 | O=C1C(=O)c2ccccc2C2=C1SCC1(CCN(C(=O)c3ccccc3I)CC1)O2 [Compound 49, 1′-(2-iodobenzoyl)spiro[naphtho[1,2-b][1,4]oxathiine-2,4′-piperidine]-5,6-dione] | 5.11 | 2.7
< 4.00 | 5.28 | 5.30 | 5.02 | 5.37 | CN(C)c1cccc(C(=O)N2CCC3(CC2)CSC2=C(O3)c3ccccc3C(=O)C2=O)c1 [Compound 46, 1′-[3-(dimethylamino)benzoyl]spiro[naphtho[1,2-b][1,4]oxathiine-2,4′-piperidine]-5,6-dione] | 4.54 | 5.4
4.93 | 5.81 | 5.39 | 5.82 | 5.63 | O=C1C(=O)c2ccccc2C2=C1SCC1(CCN(C(=O)CSc3ccccc3)CC1)O2 [Compound 48, 1′-[(phenylthio)acetyl]spiro[naphtho[1,2-b][1,4]oxathiine-2,4′-piperidine]-5,6-dione] | 5.24 | 3.7
5.11 | 5.84 | 5.41 | 5.73 | 5.82 | O=C1C(=O)c2ccccc2C2=C1SCC1(CCN(C(=O)c3ccco3)CC1)O2 [Compound 39, 1′-(2-furoyl)spiro[naphtho[1,2-b][1,4]oxathiine-2,4′-piperidine]-5,6-dione] | 5.20 | 4.4
